From ChEMBL document CHEMBL1156165, “Novel 8-(furan-2-yl)-3-substituted thiazolo [5,4-e][1,2,4] triazolo[1,5-c] pyrimidine-2(3H)-thione derivatives as potential adenosine A(2A) receptor antagonists” (Bioorg Med Chem, 2010)
The source made the active and inactive calls. No cut-off for these calls is given here.

What was measured:
[1] = target: Adenosine receptor A2a (Homo sapiens, UniProt P29274); assay: biochemical
Description: Displacement of [3H]ZM241385 from human adenosine A2A receptor expressed in HEK293 cells after 60 mins by rapid filtration assay

[2] = organism: Homo sapiens; assay: Selectivity ratio of Ki for human adenosine A1 receptor to Ki for human adenosine A2A receptor
[3] = target: T1, Adenosine receptor A1 (Homo sapiens, UniProt P30542); assay: biochemical
T1 sequence (P30542 whole entry): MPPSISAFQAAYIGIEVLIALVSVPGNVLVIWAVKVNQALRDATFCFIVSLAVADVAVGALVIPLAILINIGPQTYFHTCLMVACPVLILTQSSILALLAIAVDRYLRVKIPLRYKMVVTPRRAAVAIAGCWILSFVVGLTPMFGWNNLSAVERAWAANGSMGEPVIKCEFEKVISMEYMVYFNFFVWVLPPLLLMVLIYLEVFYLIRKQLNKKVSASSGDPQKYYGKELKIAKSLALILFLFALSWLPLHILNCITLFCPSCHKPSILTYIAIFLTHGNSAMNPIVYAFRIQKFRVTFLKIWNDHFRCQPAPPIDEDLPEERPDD
Description: Displacement of [3H]DPCPX from human adenosine A1 receptor expressed in HEK293 cells after 60 mins by rapid filtration assay

[4] = test system: Mus musculus; assay: Inhibition of haloperidol-induced akinesia in Swiss albino mouse at 20 mg/kg, ip administered 30 mins prior to haloperidol challenge measured after 15 to 120 mins; type: functional, organism-based; design: dose 20 mg/kg
[5] = test system: Mus musculus; assay: Inhibition of haloperidol-induced akinesia in Swiss albino mouse at 5 mg/kg, ip administered 30 mins prior to haloperidol challenge measured after 15 to 120 mins; type: functional, organism-based; design: dose 5 mg/kg
[6] = test system: Mus musculus; assay: Inhibition of haloperidol-induced catalepsy in Swiss albino mouse at 20 mg/kg, ip administered 30 mins prior to haloperidol challenge measured after 15 to 120 mins; type: functional, organism-based; design: dose 20 mg/kg
[7] = test system: Mus musculus; assay: Inhibition of haloperidol-induced catalepsy in Swiss albino mouse at 5 mg/kg, ip administered 30 mins prior to haloperidol challenge measured after 15 to 120 mins; type: functional, organism-based; design: dose 5 mg/kg
[8] = test system: Mus musculus; assay: Inhibition of haloperidol-induced akinesia in Swiss albino mouse at 10 mg/kg, ip administered 30 mins prior to haloperidol challenge measured after 15 to 120 mins; type: functional, organism-based; design: dose 10 mg/kg
[9] = test system: Mus musculus; assay: Inhibition of haloperidol-induced catalepsy in Swiss albino mouse at 10 mg/kg, ip administered 30 mins prior to haloperidol challenge measured after 15 to 120 mins; type: functional, organism-based; design: dose 10 mg/kg

Adenosine receptor A2a, sequence (P29274 whole entry): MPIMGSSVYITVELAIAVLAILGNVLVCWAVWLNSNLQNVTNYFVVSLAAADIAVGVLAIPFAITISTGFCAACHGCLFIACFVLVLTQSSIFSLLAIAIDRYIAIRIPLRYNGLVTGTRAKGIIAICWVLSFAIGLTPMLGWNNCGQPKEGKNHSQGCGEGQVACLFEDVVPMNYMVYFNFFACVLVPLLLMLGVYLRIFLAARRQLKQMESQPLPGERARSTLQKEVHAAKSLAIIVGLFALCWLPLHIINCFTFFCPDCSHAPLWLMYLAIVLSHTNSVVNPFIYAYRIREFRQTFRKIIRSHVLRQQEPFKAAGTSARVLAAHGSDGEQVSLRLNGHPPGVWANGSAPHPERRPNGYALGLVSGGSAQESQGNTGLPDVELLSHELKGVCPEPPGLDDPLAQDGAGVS

Structure (SMILES)	Ki [1]	Ratio Ki [2]	Ki [3]	inhibition [4]	inhibition [5]	inhibition [6]	inhibition [7]	inhibition [8]	inhibition [9]
CCn1c(=S)sc2c1ncn1nc(-c3ccco3)nc21	3560 pM	0.028	96 pM	–	–	–	–	–	–
S=c1sc2c(ncn3nc(-c4ccco4)nc23)n1-c1ccc(I)cc1	570 pM	10.8	6130 pM	–	–	–	–	–	–
S=c1sc2c(ncn3nc(-c4ccco4)nc23)n1-c1ccccc1I	700 pM	0.571	400 pM	–	–	–	–	–	–
S=c1sc2c(ncn3nc(-c4ccco4)nc23)n1-c1ccc(Cl)cc1	152 pM	0.197	30 pM	–	–	–	–	–	–
Fc1ccc(-n2c(=S)sc3c2ncn2nc(-c4ccco4)nc32)cc1	2020 pM	1.59	3210 pM	–	–	–	–	–	–
C=CCn1c(=S)sc2c1ncn1nc(-c3ccco3)nc21	16 pM	1250	19000 pM	Active	Active	Active	Active	Active	Active

More lines, main results first:

Ki [1]	Ratio Ki [2]	Ki [3]	Structure (SMILES)	inhibition [4]	inhibition [5]	inhibition [6]	inhibition [7]	inhibition [8]	inhibition [9]
120 pM	1290	148000 pM	CCCCn1c(=S)sc2c1ncn1nc(-c3ccco3)nc21	Active	Active	Active	Active	Active	Active
380 pM	636	228000 pM	CCCn1c(=S)sc2c1ncn1nc(-c3ccco3)nc21	Active	Active	Active	Active	Active	Active
1100 pM	46.6	48000 pM	S=c1sc2c(ncn3nc(-c4ccco4)nc23)n1-c1ccccc1	–	–	–	–	–	–
38 pM	5	190 pM	S=c1sc2c(ncn3nc(-c4ccco4)nc23)n1-c1cccc(Cl)c1	–	–	–	–	–	–
8.2 pM	320	2620 pM	S=c1sc2c(ncn3nc(-c4ccco4)nc23)n1-c1cccc(I)c1	–	–	–	–	–	–
